The test system of the data set is brain dead adult beagle dogs. The settings on record: dog, in vivo. How it is done: Care and Use Committee. Adult beagle dogs (8-10 kg) of either sex (n=11) were initially anesthetized with propofol (10 mg/kg, intravenous or IV). After intubation, anesthesia was maintained with isoflurane at 1-2% on mechanical ventilation with FiO2 at 30%, ventilation rate of 12, which was adjusted as necessary to achieve a PaCO2 goal of 38-42 mmHg. A circulating water-warming pad was used to maintain normothermia throughout the experiment. The femoral artery was cannulated for arterial blood sampling and for measurement of arterial blood pressure and heart rate. The external jugular vein was also accessed and cannulated for administration of fluids and necessary medications.
Explosive brain death was induced in anesthetized adult Beagle dogs by inflating a balloon catheter (16 Fr. Foley) that was placed under the skull from a trephination burr hole. The balloon was inflated from 0-8 ml volume over about 5 minutes. which ultimately causes the brain stem to herniate through the foramen at the base of the skull. This causes rapid brain death that is characterized by the occurrence of a Cushing reflex, a negative apnea reflex, and fixed and dilated pupils. This methodology has previously been described by Mangino, et al.
The animals were assigned to either the control group (n=5) or the PEG-20k group (n=6) within the first hour. Both groups were treated in a standard fashion. […]

Regarding polyethylene glycol-20k [PEG-20k], the Hb level trend entry is “trended lower”.
